Assay [1] concerns TLR4 with MD2 or CD14 co-receptor. Briefly: Reporter gene (SEAP) PAMP assay in NIH3T3 cells expressing TLR4 with MD2 or CD14 co-receptor. In kind it is cell-based. Further details: key to PAMP assay (NIH3T3 cells) Induction with compound alone / PAMP assay (NIH3T3 cells) Induction with compound + LPS: 0: no effect of the compound alone/no effect of the compound in addition to LPS alone; +: small effect of the compound alone/small effect of the compound in addition to LPS alone; ++: intermediate effect of the comp. alone/intermediate effect of the comp. in add. to LPS alone; +++: strong effect of the compound alone/strong effect of the compound in addition to LPS alone. The following applies: for Co-Receptor/s: co-receptor (MD2/CD14) via which the effect occurs; for Co-Receptor/s / Activity: summary of FIGS. 6A-6V; for Activity: type of effect (activation/inhibition) on TLR4. An excerpt:
FIGS. 6A-6V show the dose response inhibitor/activator effects of the designed peptides using a reporter gene assay. The reporter gene assay is composed of NIH3T3 cells transfected with either MD2 or CD14 along with TLR4 and the NF-κB-inducible reporter gene Secreted Alkaline Phosphatase (SEAP) to monitor TLR4 activation (Burger-[…] al. 2010, A new cell-based innate immune receptor assay for the examination of receptor activity, ligand specificity, signaling pathways and the detection of pyrogens. […] The receptors are coupled to for the detection of inhibitory activity, cells were treated with the peptide prior to exposure to LPS and the response to LPS is measured at variable peptide doses (as labeled). The detection of cell activation was performed using the peptide alone, at variable doses, as indicated in the respective graphs. The following presents in more details the experimental procedures. Experimental setup: The cell-based Assay is performed with different NIH3T3 reporter cell lines (NIH 3T3 PRR SEAP-TLR4/CD14 or -TLR4/MD2) and the control cell line NIH 3T3 SEAP. The NIH3T3 SEAP cell line is used in order to determine the background of the alkaline phosphatase expression. It is a cell line stably transfected with only the reporter gene plasmid. For each assay a vial of the master cell bank is revitalized and seeded in a standard cell culture flask (75 cm^2 T-Flask) at day one. Cells are cultured in 20 ml culture media (DMEM supplemented with 10% FCS (heat inactivated), 50 units/ ml penicillin, 0.05 mg/ ml streptomycin and 2 mmol/ L L-glutamine). The cells are cultured at 37° C. in a 5% CO2 humidified atmosphere. At Day 1: For the PAMP Assay cells are seeded in a 96-well plate at a density of 0.3.10^5 cells/well in a final volume of 100 μl culture media (DMEM, 10% FCS (heat inactivated)). To ensure equal culture conditions the 96-well cell culture plates are placed side by side and cultivated in a humidified CO2 incubator (37° C. and 5% CO2). […] After a cultivation period of 24 h the media is removed and replaced with the respective volume of fresh media (DMEM, 0.5% FCS (heat inactivated)).The lyophilized peptides are stored in a freezer at -20° C. upon arrival. For the experiments they are dissolved in DMSO (to the highest possible concentration). Before opening the peptides are allowed to equilibrate to room temperature (in order to reduce the uptake of moisture). For each experiment the stock solution is diluted in DMEM to the appropriate working concentration. […] Sonication was also used to help dissolve the peptides. Immediately after replacing the media, the diluted peptides are applied in a serial dilution to the cells and directly after that the agonist is added to the cells. After adding peptide and […] the final volume in each well of a 96 well plate amounts 100 μl/well. The culture medium containing 0.5% FCS is used as a negative reference item. The induction is performed for 18 h at 37° C. and 5% CO2. At Day 3: To determine the final SEAP value, 50 μl of the supernatant is carefully transferred in a new 96-well plate (Greiner-F-plate) and 50 μl of the substrate (pNPP; p-nitrophenyl phosphate) is added. SEAP catalyzes the hydrolysis of pNPP to the final product para-nitrophenol (yellow) which can be detected by a photometric analysis using an UV-VIS reader at 405 nm. […] The results of FIGS. 6A-6V with respect to peptide activity are summarized in Table 1 above with respect to the type of effect of the respective peptide (activation/inhibition) and with respect to the corresponding co-receptor (MD2/CD14). Data concerning SEQ ID No. 22 with respect to co-receptor CD14 is in preparation.
(A reporter such as luciferase makes a cellular process visible.)

For the next assay, the system named is whole human blood. In words: IL-1β ELISA after 24-hour incubation with whole human blood. In kind it is cell-based. Further details: key: 0: no effect of the compound alone/no effect of the compound in addition to LPS alone; +: small effect of the compound alone/small effect of the compound in addition to LPS alone; ++: intermediate effect of the comp. alone/intermediate effect of the comp. in add. to LPS alone; +++: strong effect of the compound alone/strong effect of the compound in addition to LPS alone. The following applies: for IL-1β ELISA after blood activation Induction with compound + LPS: LPS 100 pg/ml. How it is done:
One attribute of TLR-4 activation is the release of the pro-inflammatory cytokine Interleukin-1β (IL1β). Several of our discovered peptides were tested for IL1β induction by ELISA following a 24-hour incubation with whole human blood. IL1β induction was measured with increasing dosage of the peptides alone, or with a fixed dosage of LPS (100 pg/ml).
(In general: In an ELISA, binding on a coated surface is turned into a signal by an enzyme label.)

Non-standard residues stand in square brackets, D forms with d. No end group written: not given here. Chg = N[C@H](C(=O)O)C1CCCCC1; Nphe = O=C(O)CNCc1ccccc1; Ava = NCCCCC(=O)O

Turning to “1(N′) Ava-OH-2Leu-3Tyr-4Met-5Ser-6Leu-7Lys-8Trp-9Met (C′) ([Ava]LYMSLKWM; also: Ava-OH) [SEQ ID No. 4 (M1)]”, in assay [1], the Co-Receptor/s result is “MD2/CD14”, the “PAMP assay (NIH3T3 cells) Induction with compound + LPS” value (shortened to “PAMP assay … with compound + LPS”) is reported as “++”, the “PAMP assay (NIH3T3 cells) Induction with compound alone” value (“PAMP assay … with compound alone” below) was “++” and the Activity result is given as “Activator”. In the assay on whole human blood, the “IL-1β ELISA after blood activation Induction with compound + LPS” value (from here on “IL-1β ELISA … with compound + LPS”) is “+++” and the “IL-1β ELISA after blood activation Induction with compound alone” value (“IL-1β ELISA … with compound alone” below) is recorded as “+”.

As for “(N′) 1(S)Glu-2(S)Trp-3Gly-4(S)Trp-5(S)Arg-6(S)Met-7(R,S)Ile-8Bzl(Gly) (C′) (EWGWRMI[Nphe]; also: Ile7 (R,S)) [SEQ ID No. 2 (M1)]”, in assay [1], the Co-Receptor/s entry was “MD2/CD14” and the Activity result is recorded as “Activator”.

Take “(N′) Chg-2Leu-3Tyr-4Met-5Ser-6Leu-7Lys-8Trp-9Met (C′) ([Chg]LYMSLKWM) [SEQ ID No. 4 (M2)]”: in assay [1], the Co-Receptor/s result is on record as “MD2/CD14”, the “PAMP assay … with compound + LPS” value is “++”, the “PAMP assay … with compound alone” value was “++” and the Activity entry is on record as “Activator”. In the assay on whole human blood, the “IL-1β ELISA … with compound + LPS” value is “+++” and the “IL-1β ELISA … with compound alone” value is “+”.

In the case of EWGWRMII (Activator) [SEQ ID No. 2], in assay [1], the Co-Receptor/s entry is given as “MD2/CD14” and the Activity result was “Activator”.

With ILYKSLKWM (Activator) [SEQ ID No. 5], in assay [1], the Co-Receptor/s entry is given as “MD2/CD14” and the Activity result is “Activator”.

ILYMSLKWM (Activator) [SEQ ID No. 4]: in assay [1], the Co-Receptor/s entry was “MD2/CD14”, the “PAMP assay … with compound + LPS” value was “+++”, the “PAMP assay … with compound alone” value was “+” and the Activity result is listed as “Activator”. In addition, in the assay on whole human blood, the “IL-1β ELISA … with compound + LPS” value is reported as “+++” and the “IL-1β ELISA … with compound alone” value is 0.

For the substance “KKLMLII (at the C-terminus CH3 replace COOH) (KKLMLII-CH3) [SEQ ID No. 12]”, in assay [1], the Co-Receptor/s entry is given as “MD2/CD14” and the Activity entry is recorded as “Inhibitor”.

On to MIPYGMRMM (Inhibitor) [SEQ ID No. 10], for which, in assay [1], the Co-Receptor/s result is listed as “MD2” and the Activity result was “Inhibitor”.

For the substance “PLWMMIKSMGSMMEMKK (Activator) [SEQ ID No. 3]”, in assay [1], the Co-Receptor/s entry is recorded as “MD2” and the Activity entry is “Activator”.

Take “RYETMSIMIKSGGKG (RYETMSIMIKSGGKY; Activator) [SEQ ID No. 1]”: in assay [1], the Co-Receptor/s entry is recorded as “MD2/CD14” and the Activity entry was “Activator”.

As for “RYETMSIMIKSGGKG-(methyl group replacing C-terminus) [SEQ ID No. 1 (M3)]”, in assay [1], the Co-Receptor/s entry is on record as “MD2/CD14”, the “PAMP assay … with compound + LPS” value is “+”, the “PAMP assay … with compound alone” value was “+” and the Activity entry is “Activator”. In the assay with whole human blood, the “IL-1β ELISA … with compound + LPS” value was 0 and the “IL-1β ELISA … with compound alone” value was found to be 0.

On to “c[IGFMMMKKEF] (cyclic; Activator, cyclic) [SEQ ID No. 8]”, for which, in assay [1], the Co-Receptor/s entry is given as “MD2/CD14” and the Activity result was “Activator”.

In the case of “c[IWSRSW] (cyclic; Inhibitor, cyclic) [SEQ ID No. 15]”, in assay [1], the Co-Receptor/s entry is “MD2” and the Activity result is listed as “Inhibitor”.

As for “c[SIWDTMW] (cyclic; Inhibitor, cyclic) [SEQ ID No. 14]”, in assay [1], the Co-Receptor/s entry is given as “MD2” and the Activity result is reported as “Inhibitor”.

Take “c[SWEFLW] (cyclic; Inhibitor, cyclic) [SEQ ID No. 13]”: in assay [1], the Co-Receptor/s result is “MD2/CD14” and the Activity entry is “Inhibitor”.

For the substance “c[geldkftm] (all D-amino acids) (cyclo(G[dE][dL][dD][dK][dF][dT][dM]); SMILES CSCC[C@H]1NC(=O)[C@@H]([C@H](C)O)NC(=O)[C@@H](Cc2ccccc2)NC(=O)[C@@H](CCCCN)NC(=O)[C@@H](CC(=O)O)NC(=O)[C@@H](CC(C)C)NC(=O)[C@@H](CCC(=O)O)NC(=O)CNC1=O) [SEQ ID No. 21]”, in assay [1], the Co-Receptor/s result was “MD2/CD14” and the Activity result is “Activator”.

“c[gfwseeeksl] (all D-amino acids) (cyclo(G[dF][dW][dS][dE][dE][dE][dK][dS][dL]); SMILES CC(C)C[C@H]1NC(=O)[C@@H](CO)NC(=O)[C@@H](CCCCN)NC(=O)[C@@H](CCC(=O)O)NC(=O)[C@@H](CCC(=O)O)NC(=O)[C@@H](CCC(=O)O)NC(=O)[C@@H](CO)NC(=O)[C@@H](Cc2c[nH]c3ccccc23)NC(=O)[C@@H](Cc2ccccc2)NC(=O)CNC1=O) [SEQ ID No. 22]”: in assay [1], the Co-Receptor/s result is listed as “MD2/CD14” and the Activity entry was “Activator”.

For the substance “c[gwlwrsl] (all D-amino acids) (cyclo(G[dW][dL][dW][dR][dS][dL]); SMILES CC(C)C[C@H]1NC(=O)[C@@H](CO)NC(=O)[C@@H](CCCNC(=N)N)NC(=O)[C@@H](Cc2c[nH]c3ccccc23)NC(=O)[C@@H](CC(C)C)NC(=O)[C@@H](Cc2c[nH]c3ccccc23)NC(=O)CNC1=O) [SEQ ID No. 19]”, in assay [1], the Co-Receptor/s result is on record as “MD2/CD14” and the Activity result is “Activator”.

Consider “c[gwwwral] (all D-amino acids) (cyclo(G[dW][dW][dW][dR][dA][dL]); SMILES CC(C)C[C@H]1NC(=O)[C@@H](C)NC(=O)[C@@H](CCCNC(=N)N)NC(=O)[C@@H](Cc2c[nH]c3ccccc23)NC(=O)[C@@H](Cc2c[nH]c3ccccc23)NC(=O)[C@@H](Cc2c[nH]c3ccccc23)NC(=O)CNC1=O) [SEQ ID No. 20]”, for which, in assay [1], the Co-Receptor/s entry is “MD2/CD14” and the Activity result is “Inhibitor”.

In the case of “rmmmw (all D-amino acids, CH3 group replaces C-term) ([dR][dM][dM][dM][dW]-CH3) [SEQ ID No. 16]”, in assay [1], the Co-Receptor/s result was “MD2/CD14” and the Activity result is reported as “Activator”.

As to “tiymmmtmkg (all D-amino acids, both isoleucine chiral centers in D-enantiomer) [SEQ ID No. 18]”, in assay [1], the Co-Receptor/s result is given as “CD14” and the Activity result is on record as “Activator”.

As for “wwikd (all D-amino acids, both isoleucine chiral centers in D-enantiomer) [SEQ ID No. 17]”, in assay [1], the Co-Receptor/s entry was “MD2/CD14” and the Activity entry was “Activator”.

The values are drawn from patent publication US20200247849A1, “PEPTIDE AGONISTS AND ANTAGONISTS OF TLR4 ACTIVATION” (PEPTICOM LTD, priority 2016, published 2020).
